Experimental data: US4879311A, “Derivatives of benzoyloxyacetic acid, and preparation and formulations thereof for therapeutic use” (Inverni della Beffa S.p.A., priority 1987, dated 1989)
Where a name gives a salt, the structure may show the parent alone.

Experiment: pH of aqueous solution
Assay type: physicochemical
Details: 1% aqueous solution

For Cc1ccc(Cl)c(Nc2ccccc2C(=O)OCC(=O)O)c1Cl [Ic, d,l-lysine salt (Ic) of 2-[(2,6-dichloro-3-methylphenyl)-amino]benzoyloxyacetic acid], the “pH in 1% aqueous solution” value was 6.75.
